# According to patent EP4512427A1, “ANTIBODY-DRUG CONJUGATES BASED ON MOLECULAR GLUE DEGRADERS AND USES THEREOF” (Mablink Bioscience, priority 2023, dated 2025):
# What was measured:
# SKBR-3 = assay: In vitro cytotoxicity assay (MTT); type: cell-based, human; details: Homo sapiens, SK-BR-3, 144 h, 6 days incubation
# Procedure: (§1) In vitro cytotoxicity of compounds of the disclosure was assessed on several cancerous human cell lines. Cells were plated in 96-well plates at an appropriate density depending on the cell line (between 1000 and 10 000 cells/well in 100µL of appropriate culture media) and incubated at 37°C for 24 hours. Serial dilutions of the tested compound previously dissolved in culture media (50µL) were added, and incubation was carried at 37°C out for 6 days. MTT (5mg/mL in PBS, 20µL, Sigma-Aldrich) was added into the wells, and incubation was continued for 1 to 4 hours at 37°C. Culture media was then carefully removed, and well content was homogeneously dissolved with acidified isopropanol. Absorbance values were measured on a microplate reader using a wavelength of 570 nm (with a reference wavelength of 690 nm). The IC50 concentration values compared to untreated control cells were determined using inhibition dose response curve fitting (GraphPad Prism 9). Exatecan mesylate (cat#HY-13631A) and CR8 (CAS# 294646-77-8; cat#HY-18340) were purchased from MedChemExpress (China).
# NCI-N87 = assay: In vitro cytotoxicity assay (MTT); type: cell-based, human; details: Homo sapiens, NCI-N87, 144 h, 6 days incubation
# Procedure: as §1
# MDA-MB-231 = assay: In vitro cytotoxicity assay (MTT); type: cell-based, human; details: Homo sapiens, MDA-MB-231, 144 h, 6 days incubation
# Procedure: as §1
# MDA-MB-453 = assay: In vitro cytotoxicity assay (MTT); type: cell-based, human; details: Homo sapiens, MDA-MB-453, 144 h, 6 days incubation
# Procedure: as §1
# BT-474 = assay: In vitro cytotoxicity assay (MTT); type: cell-based, human; details: Homo sapiens, BT-474, 144 h, BT-474; 6 days incubation, MTT
# Procedure: as §1
# KB-1 = assay: In vitro cytotoxicity assay (MTT); type: cell-based; details: Homo sapiens, KB16, 144 h, 6 days incubation
# Procedure: as §1
# MDR1 = biological target: T1, MDR1 (Homo sapiens, UniProt P08183); assay: MDR1 efflux substrate assay in MDCK-MDR1; type: in vitro ADME; details: for efflux ratio at 60 min, 5 µM / Papp A→B at 60 min, 5 µM / Papp B→A at 60 min, 5 µM: dog; for efflux ratio at 60 min, 5 µM: MDCK-MDR1, pH 7.4, read-out: Efflux ratio B/A; for Papp A→B at 60 min, 5 µM / Papp B→A at 60 min, 5 µM: MDCK-MDR1, 5µM, pH 7.4; for Papp A→B at 60 min, 5 µM: read-out: Papp A (donor) to B (acceptor); for Papp B→A at 60 min, 5 µM: read-out: Papp B (acceptor) to A (donor)
# T1 construct: host or cells: MDCK-MDR1 (Preadyport)
# T1 sequence (P08183 whole entry): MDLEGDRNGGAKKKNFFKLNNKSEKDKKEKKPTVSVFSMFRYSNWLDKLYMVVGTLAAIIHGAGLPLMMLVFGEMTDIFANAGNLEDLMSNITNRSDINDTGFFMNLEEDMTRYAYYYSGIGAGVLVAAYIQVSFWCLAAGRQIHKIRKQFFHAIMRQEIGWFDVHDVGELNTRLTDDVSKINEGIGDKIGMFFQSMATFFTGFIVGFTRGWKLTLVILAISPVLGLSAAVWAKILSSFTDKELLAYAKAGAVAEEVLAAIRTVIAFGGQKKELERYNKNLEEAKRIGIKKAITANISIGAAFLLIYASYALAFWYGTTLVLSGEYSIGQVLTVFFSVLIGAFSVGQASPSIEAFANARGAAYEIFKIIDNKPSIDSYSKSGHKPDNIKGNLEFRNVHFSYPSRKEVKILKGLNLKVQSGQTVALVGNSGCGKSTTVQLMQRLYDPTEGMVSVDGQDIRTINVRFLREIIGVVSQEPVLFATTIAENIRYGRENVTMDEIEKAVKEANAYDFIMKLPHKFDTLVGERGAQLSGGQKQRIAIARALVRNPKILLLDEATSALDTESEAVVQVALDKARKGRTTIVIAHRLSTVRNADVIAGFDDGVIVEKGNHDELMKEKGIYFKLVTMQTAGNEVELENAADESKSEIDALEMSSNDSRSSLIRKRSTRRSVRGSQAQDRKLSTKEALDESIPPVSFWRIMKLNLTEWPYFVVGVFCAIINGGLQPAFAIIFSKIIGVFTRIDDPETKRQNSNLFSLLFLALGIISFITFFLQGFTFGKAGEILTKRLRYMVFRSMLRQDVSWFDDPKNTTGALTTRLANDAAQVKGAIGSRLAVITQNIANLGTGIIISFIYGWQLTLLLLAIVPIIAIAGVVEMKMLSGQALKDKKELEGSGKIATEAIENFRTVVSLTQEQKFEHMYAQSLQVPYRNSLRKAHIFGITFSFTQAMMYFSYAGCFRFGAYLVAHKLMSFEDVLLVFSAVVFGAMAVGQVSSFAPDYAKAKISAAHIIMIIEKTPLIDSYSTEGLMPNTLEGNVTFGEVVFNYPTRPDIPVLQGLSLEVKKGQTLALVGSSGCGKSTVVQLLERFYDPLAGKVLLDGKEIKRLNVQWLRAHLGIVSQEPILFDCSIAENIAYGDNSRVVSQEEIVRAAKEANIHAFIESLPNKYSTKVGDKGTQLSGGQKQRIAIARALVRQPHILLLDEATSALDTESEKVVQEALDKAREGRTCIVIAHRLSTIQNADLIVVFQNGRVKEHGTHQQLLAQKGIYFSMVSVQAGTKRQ
# Procedure: (§2) MDR1 and BCRP efflux substrate assays were conducted in MDCK-MDR1 and MDCK-BCRP in vitro models (Preadyport™, Solvo Biotech) at Symeres (Nederland). Compound of the invention (donor well concentration of 5µM) were incubated in cell monolayer 24-transwell Preadyport system, using Preadyport recommended pH 7.4 assay buffer (donor and receiver wells). After 60 min of incubation (no shaking), samples are collected and suspended into triple volume of 66% cold acetonitrile. Samples are stored at -20°C until thawed, centrifuged and analyzed by LC-MS. Quinidine was used a positive control for the MDR1 assay, and prazosin was used as a positive control for the BCRP assay. Exatecan was used as a control, known not to be an MDR1 substrate. Residual DMSO content from compounds stock solutions was below 1% (v/v). The assay was performed in duplicate. The quantification of test compounds in donor or receptor compartment is conducted using relative LC/MS peak areas (samples of initial incubation solutions are used as a single point calibrator), without any spiked standard samples. The data is used for estimating apparent permeability (Papp) and calculation of efflux ratio.
# BCRP = biological target: T2, BCRP (Homo sapiens, UniProt Q9UNQ0); assay: BCRP efflux substrate assay in MDCK-BCRP; type: in vitro ADME; details: for efflux ratio at 60 min, 5 µM / Papp A→B at 60 min, 5 µM / Papp B→A at 60 min, 5 µM: dog, pH 7.4, MDCK-BCRP; for efflux ratio at 60 min, 5 µM: read-out: Efflux ratio B/A; for Papp A→B at 60 min, 5 µM: read-out: Papp A (donor) to B (acceptor); for Papp B→A at 60 min, 5 µM: read-out: Papp B (acceptor) to A (donor)
# T2 construct: host or cells: MDCK-BCRP (Preadyport)
# T2 sequence (Q9UNQ0 1-655): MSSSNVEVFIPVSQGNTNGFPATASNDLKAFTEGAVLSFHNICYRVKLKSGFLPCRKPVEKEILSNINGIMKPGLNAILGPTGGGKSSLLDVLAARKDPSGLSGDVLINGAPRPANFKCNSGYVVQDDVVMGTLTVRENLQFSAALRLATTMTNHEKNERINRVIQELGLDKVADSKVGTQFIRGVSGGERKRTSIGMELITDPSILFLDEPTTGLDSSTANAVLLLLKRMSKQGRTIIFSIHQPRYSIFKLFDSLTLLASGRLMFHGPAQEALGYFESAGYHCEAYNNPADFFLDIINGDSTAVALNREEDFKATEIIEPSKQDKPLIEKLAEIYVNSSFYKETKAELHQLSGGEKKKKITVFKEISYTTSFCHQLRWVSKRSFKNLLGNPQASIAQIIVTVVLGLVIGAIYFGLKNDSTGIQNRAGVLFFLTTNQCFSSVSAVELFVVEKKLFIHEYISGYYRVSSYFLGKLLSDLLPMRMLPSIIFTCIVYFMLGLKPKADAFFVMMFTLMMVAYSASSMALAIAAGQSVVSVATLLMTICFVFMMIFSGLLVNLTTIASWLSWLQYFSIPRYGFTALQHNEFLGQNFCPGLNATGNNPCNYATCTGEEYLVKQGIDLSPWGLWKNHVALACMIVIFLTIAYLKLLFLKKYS
# Procedure: as §2
# in vitro = details: PAMPA, pH 7.4
# Procedure: Stock solutions of compounds of the invention were prepared in dimethyl sulfoxide (DMSO) to a final concentration of 10 mM. Each stock solution was diluted to 50 µM in pH 7.4 Prisma HT buffer (pION) in the presence of 10% MeOH (v/v). 200 µL were added to each well of the donor plate in quintuplicate. […] The acceptor filter plate was carefully placed on top of the donor plate to form a "sandwich." The sandwich was incubated at 25°C for 5 h, at 300 rpm. UV-vis spectra of the solutions in the blank, reference, acceptor, and donor plates were measured using a Tecan Infinite 200 PRO M Nano Plus microplate reader.
# JIMT-1 = assay: In vitro cytotoxicity assay (MTT); type: cell-based, human; details: Homo sapiens, 144 h, 6 days incubation
# Procedure: as §1
# BXPC3 = assay: In vitro cytotoxicity assay (MTT); type: cell-based; details: Homo sapiens, BXPC-3, 144 h, 6 days incubation
# Procedure: as §1
# HT-29 = assay: In vitro cytotoxicity assay (MTT); type: cell-based; details: Homo sapiens, 144 h, 6 days incubation
# Procedure: as §1
# MCF-7 = assay: In vitro cytotoxicity assay (MTT); type: cell-based; details: Homo sapiens, MCF7, 144 h, 6 days incubation
# Procedure: as §1
SMILES,IC50 (SKBR-3),IC50 (NCI-N87),IC50 (MDA-MB-231),IC50 (MDA-MB-453),IC50 (BT-474),IC50 (KB-1),"efflux ratio at 60 min, 5 µM (MDR1)","Papp A→B at 60 min, 5 µM (MDR1)","Papp B→A at 60 min, 5 µM (MDR1)","efflux ratio at 60 min, 5 µM (BCRP)","Papp A→B at 60 min, 5 µM (BCRP)","Papp B→A at 60 min, 5 µM (BCRP)","Papp at 5 h, 50 µM (in vitro)",IC50 (JIMT-1),IC50 (BXPC3),IC50 (HT-29),IC50 (MCF-7),MDR1 efflux potential (MDR1; in words),BCRP efflux potential (BCRP; in words)
N[C@H]1CCC[C@@H]1Nc1nc(NCc2ccc(-c3ccccn3)cc2)n2ncc(Br)c2n1 [Compound 2668],0.2 nM,0.84 nM,0.82 nM,1.78 nM,2.16 nM,2.99 nM,41.6,1.36 ×10⁻⁶ cm/s,56.4 ×10⁻⁶ cm/s,6.99,10.2 ×10⁻⁶ cm/s,71 ×10⁻⁶ cm/s,164 ×10⁻⁶ cm/s,,,,,,
N[C@H]1CCCC[C@@H]1Nc1nc(NCc2ccc(-c3ccccn3)cc2)n2ncc(Br)c2n1 [Compound 2671],0.42 nM,1.47 nM,1.74 nM,2.22 nM,3.34 nM,7.6 nM,43.7,0.99 ×10⁻⁶ cm/s,43.2 ×10⁻⁶ cm/s,4.54,10.1 ×10⁻⁶ cm/s,46 ×10⁻⁶ cm/s,176 ×10⁻⁶ cm/s,,,,,,
CNCCNc1nc(NCc2ccc(-c3ccccn3)cc2)n2ncc(Br)c2n1 [Compound 2586],6.59 nM,3.14 nM,1.44 nM,2.47 nM,1.73 nM,,,,,,,,,1.13 nM,2.44 nM,0.45 nM,33.9 nM,,
N[C@H]1CC[C@H](CNc2nc(NCc3ccc(-c4ccccn4)cc3)n3ncc(Br)c3n2)CC1 [Compound 2635],0.83 nM,15.9 nM,12.9 nM,17.9 nM,23.1 nM,,,,,,,,,3.52 nM,39.7 nM,8.93 nM,> 100 nM,,
Brc1cnn2c(NCc3ccc(-c4ccccn4)cc3)nc(N3CCNCC3)nc12 [Compound 2601],3.61 nM,2.7 nM,0.86 nM,1.92 nM,1.86 nM,,,,,,,,,0.45 nM,1.72 nM,0.13 nM,15.4 nM,,
NC1CCN(c2nc(NCc3ccc(-c4ccccn4)cc3)n3ncc(Br)c3n2)CC1 [Compound 2559],3.73 nM,1.32 nM,1.35 nM,1.52 nM,2.63 nM,,,,,,,,,0.41 nM,1.63 nM,0.21 nM,12.8 nM,,
Brc1cnn2c(NCc3ccc(-c4ccccn4)cc3)nc(NC[C@@H]3CCCN3)nc12 [Compound 2571],7.75 nM,4.27 nM,2.22 nM,3.55 nM,2.68 nM,,108,0.59 ×10⁻⁶ cm/s,64.2 ×10⁻⁶ cm/s,12.9,7.09 ×10⁻⁶ cm/s,91.4 ×10⁻⁶ cm/s,149 ×10⁻⁶ cm/s,1.53 nM,5.43 nM,1.12 nM,79.6 nM,,
CNCCN(C)c1nc(NCc2ccc(-c3ccccn3)cc2)n2ncc(Br)c2n1 [Compound 2605],7.46 nM,4.5 nM,1.54 nM,3.66 nM,2.76 nM,,13.4,4.05 ×10⁻⁶ cm/s,54.5 ×10⁻⁶ cm/s,1.31,30.9 ×10⁻⁶ cm/s,40.5 ×10⁻⁶ cm/s,112 ×10⁻⁶ cm/s,1.22 nM,2.91 nM,0.33 nM,3.7 nM,low level,low level
Brc1cnn2c(NCc3ccc(-c4ccccn4)cc3)nc(NC3CCCNC3)nc12 (racemic) [Compound 2606],1.23 nM,0.77 nM,0.46 nM,0.64 nM,0.92 nM,,,,,,,,,0.88 nM,1.16 nM,0.13 nM,6.88 nM,,
Brc1cnn2c(NCc3ccc(-c4ccccn4)cc3)nc(N3CCC(N4CCNCC4)CC3)nc12 [Compound 2622],2.24 nM,3 nM,12.7 nM,21.1 nM,13.5 nM,,,,,,,,,4.84 nM,36.1 nM,8.25 nM,> 100 nM,,
NCCCCNc1nc(NCc2ccc(-c3ccccn3)cc2)n2ncc(Br)c2n1 [Compound 2585],38.9 nM,15.4 nM,24.7 nM,26.8 nM,1.77 nM,,,< 3.4 ×10⁻⁶ cm/s,34 ×10⁻⁶ cm/s,27.9,1.75 ×10⁻⁶ cm/s,49 ×10⁻⁶ cm/s,< 0.3 ×10⁻⁶ cm/s,7.86 nM,,,,,
"CC[C@@]1(O)C(=O)OCc2c1cc1n(c2=O)Cc2c-1nc1cc(F)c(C)c3c1c2[C@@H](N)CC3 [Exatecan, reference compound]",,,,,,,7.31,2.28 ×10⁻⁶ cm/s,16.7 ×10⁻⁶ cm/s,12.3,1.43 ×10⁻⁶ cm/s,17.6 ×10⁻⁶ cm/s,58 ×10⁻⁶ cm/s,,,,,,
N[C@H]1CC[C@H](Nc2nc(NCc3ccc(-c4ccccn4)cc3)n3ncc(Cl)c3n2)CC1 [Compound 2629],0.27 nM,0.94 nM,0.66 nM,0.77 nM,1.75 nM,,,,,,,,,0.11 nM,1.17 nM,0.36 nM,3.91 nM,,
NCC1CCN(c2nc(NCc3ccc(-c4ccccn4)cc3)n3ncc(Br)c3n2)CC1 [Compound 2560],4.33 nM,3.29 nM,1.92 nM,1.61 nM,5.92 nM,,,< 0.7 ×10⁻⁶ cm/s,26.6 ×10⁻⁶ cm/s,4.94,7.53 ×10⁻⁶ cm/s,37.2 ×10⁻⁶ cm/s,135 ×10⁻⁶ cm/s,0.6 nM,,,,,
N[C@H]1CCC[C@@H](Nc2nc(NCc3ccc(-c4ccccn4)cc3)n3ncc(Br)c3n2)C1 [Compound 2670],0.72 nM,2.53 nM,2.67 nM,9.19 nM,5.77 nM,,,< 0.5 ×10⁻⁶ cm/s,23.5 ×10⁻⁶ cm/s,5.93,5.02 ×10⁻⁶ cm/s,29.8 ×10⁻⁶ cm/s,132 ×10⁻⁶ cm/s,,,,,,
